{
  "source": "patent US12082584B2",
  "about": "“BOC-butenolide, an antifouling compound that has potent ability to inhibit the settlement of marine invertebrate larvae” (The Hong Kong University of Science and Technology, priority 2021, dated 2024)",
  "key": {"[1]": {"assay": "Stability of BOC-butenolide", "assay_type": "physicochemical", "conditions": "compared to butenolide", "protocol": "The stability of BOC-butenolide was measured by the concentration changes of BOC-butenolide in ASW throughout 3 months. The starting nominal concentration of BOC-butenolide was 200 ppm. At every time point, 5 mL of the solution was drawn and mixed with 10 mL dichloromethane (DCM). The DCM fraction with the analyte was dried under nitrogen gas, redissolved reconcentrated in 1 mL of methanol and subjected to above HPLC analysis."}, "Balanus amphitrite": {"test_system": "Balanus amphitrite", "assay": "Anti-larval settlement bioassay of barnacle cyprids (settlement and toxic effects)", "assay_type": "in vivo", "conditions": "for settlement rate: cyprids", "protocol": "Adult A. amphitrite colonies were collected from Tso Wo Hang Pier (22°23′32.1″N 114°17′18.7″E), Hong Kong, from April to June 2018. The adults were kept in a water tank with running seawater at the Coastal Marine Laboratory (the Hong Kong University of Science and Technology) for no more than a week before experimental use. Adults were induced under light sources for 1 h to hatch and the larvae were obtained using the method described previously by Harder et al. (2001), which is hereby incorporated by reference in its entirety. The nauplii larvae newly released from the adults were reared on diatom Chaetoceros gracilis Schütt. The seawater culture medium was replaced with fresh FSW and algae every day, and the nauplii reached the competent stage, known as cyprid, after 4 d of incubation at around 28° C.\nThe test compounds were dissolved with a small amount of DMSO. The test compounds were used in six concentrations from 100 ppm to 3.125 ppm with 2-fold serial dilution. The same amount of DMSO was used as the negative control for all testing concentrations. Approximately 20±2 individual A. amphitrite cyprids were placed into each well of the 24-well polystyrene culture plate containing 2 mL of FSW and were subjected to different treatments. For all treatments and controls, three replicates were performed. The plates were then incubated at 25° C. in darkness. After 48 h, the number of settled and swimming larvae were counted using Leica MZ6 microscope, and possible toxic effects were also noted."}, "fouling organisms": {"test_system": "fouling organisms", "assay": "Field test of coated PVC panels immersed in seawater", "assay_type": "in vivo", "conditions": "PCL-PU coating", "protocol": "(§1) The polymer/antifoulant coatings in subject invention were prepared using the solution casting method described by Ding et al. 2018. The coating was prepared by dissolving poly(ε-caprolactone) based polyurethane (PCL-PU) and BOC-butenolide, in different proportions (i.e. 95 wt % polymer and 5 wt % antifoulant for 5% antifoulant coating), in xylene with vigorous stirring until all solids have dissolved to form a uniform solution. The solution was applied onto the surface of the panels, either epoxy panel (25 mm×75 mm) for release rate determination or PVC panels (53 mm×125 mm) for field test, and the panels were then placed under room temperature for all solvent to evaporate and form a continuous coating.\nThe field tests were conducted at a fish farm in Yung Shue O, Hong Kong (114°21′E, 22°24′N) from January to March 2018. PVC panels (53 mm×125 mm) covered with coatings were immersed in seawater at a depth of 1 m from surface. The panels were retrieved once every month to be washed gently with seawater to remove dirt and photographed before being placed back in the sea. The antifouling potential of different panels was compared to determine the efficiency of the coatings. […] The percentage of area covered by foulers was calculated from the ratio of total fouling area to the panel area in which the area was highlighted by threshold function in ImageJ. […]"}, "[2]": {"assay": "Antifoulant release rate from PCL-PU coatings in artificial seawater (HPLC)", "assay_type": "physicochemical", "protocol": "as §1\nThe release rate of BOC-butenolide was determined by HPLC for quantification. The polymer/antifoulant coatings were prepared on an epoxy panel (25 mm×75 mm). The coated panels were then put into ASW. At certain time points (day 1, 8, 15, 22, 29, 50, 71, 92 after immersion onto ASW), the panels were transferred to individual containers with 100 mL of fresh ASW. […]"}, "Hydroides elegans": {"test_system": "Hydroides elegans", "assay": "Anti-larval settlement bioassay of H. elegans larvae (settlement and toxic effects)", "assay_type": "in vivo", "protocol": "Adult H. elegans colonies were collected from a fish farm at Yung Shue O, Hong Kong (22°24′N, 114°21′E) from March to April 2019. The adults were kept in a water tank with running seawater at the Coastal Marine Laboratory (the Hong Kong University of Science and Technology) for no more than 3 days before experimental use. The larvae were collected according to the methods described by Qian and Pechenik (1998). The tube of the adults was gently cracked with forceps to release the gametes. Oocytes were then mixed with the sperm and transferred to a new container with 500 mL FSW for fertilization. Larvae were reared on microalga Isochrysis galbana (Tahitian strain) after hatching. The seawater culture medium was replaced with fresh FSW and algae every day, and the trochophore-stage larvae reached the competent stage after 5 d of incubation at around 25° C.\nThe test compounds were dissolved with a small amount of DMSO. The test compounds were used at six different concentrations with a 2-fold serial dilution from 100 ppm to 3.125 ppm. The same amount of DMSO was used as the negative control for all testing concentrations. Approximately 10±2 individuals of H. elegans larvae were put into each well of a 24-well polystyrene culture plate that contained 2 mL of FSW with different concentrations of test solution. Approximately 10^−4 molarity of 3-isobutyl-1-methylxanthine was added into each well as an inducer to induce the settlement of H. elegans larvae (Xu et al., 2010). The plates were then incubated at 25° C. in darkness. After 24 h, the number of settled and swimming larvae were counted using Leica MZ6 microscope, and possible toxic effects were also noted."}},
  "data": [
    {"smiles": "CC(C)(C)OC(=O)NCCCCCC1C=CC(=O)O1", "note": "(stereo not shown) [BOC-butenolide, Tert-butyl (5-(5-oxo-2,5-dihydrofuran-2yl)pentyl)carbamate]", "values": [
      {"measurement": "stability", "setting": "[1]", "result": "increased"},
      {"measurement": "settlement rate", "setting": "Balanus amphitrite; 3.125 ppm, 48 h", "result": "around 70%"},
      {"measurement": "toxicity (larval death rate)", "setting": "Balanus amphitrite; 25 ppm and below", "result": "did not show any toxicity"},
      {"measurement": "settlement rate", "setting": "Balanus amphitrite; 25 ppm, 48 h", "result": "around 3%"},
      {"measurement": "attachment of barnacle cyprids", "setting": "Balanus amphitrite; 50 to 100 ppm, 48 h", "result": "inhibits the attachment"},
      {"measurement": "AF ability to resist the attachment of the fouling organisms", "setting": "fouling organisms", "result": "relatively good AF ability"},
      {"measurement": "initial release rate", "setting": "[2]; 10 wt % samples in PCL-PU coating", "result": 150, "unit": "μg cm^−2 day^−1"},
      {"measurement": "time the coating can still release BOC-butenolide", "setting": "[2]; PCL-PU coating", "result": "at least 2 months"},
      {"measurement": "settlement rate", "setting": "Hydroides elegans; 3.125 ppm, 24 h", "result": "up to 80%"},
      {"measurement": "toxicity (larval death rate)", "setting": "Hydroides elegans; 25 ppm and below", "result": "did not show any toxicity"},
      {"measurement": "settlement rate", "setting": "Hydroides elegans; 25 ppm, 24 h, significant difference with control", "result": "around 20%"},
      {"measurement": "larval settlement", "setting": "Hydroides elegans; 50 and 100 ppm, 24 h", "result": "no larval settlement"},
      {"measurement": "death", "setting": "Hydroides elegans; 50 ppm", "result": "around 10%"}
    ]}
  ]
}
